# Data published in patent US5760235A, “Anticoagulant peptide derivatives and pharmaceutical compositions containing the same as well as a process for preparation thereof” (Gyogyszerkutato Intezet Kft., priority 1992, dated 1998).
# How the values were obtained:
# Set-up in all cases: unit not given here
# [1] = tested on: native whole human blood; experiment: In vitro whole blood clotting time (WBCT), native human blood; type: biochemical
# Procedure: (§1) The antithrombin activity of the compounds of general formula (I) was determined by the usual method [Bagdy et al.: Thromb Haemostas 67, 325-330 (1992)] by measuring whole blood clotting time (WBCT), thrombin time (TT) and activated partial thromboplastin time (APTT). The in vitro activity of some compounds of the invention assayed on native human blood (non-anticoagulated clotting) (WBCT) and on citrated blood plasma (TT and APTT) is presented in Table 1.
# (§2) ^2 WBCT = whole blood clotting time, TT = thrombin time, APTT =
# (§3) activated partial thromboplastin time parameter. The figures represent
# (§4) concentrations of the compounds required to double the clotting time of
# (§5) native whole human blood or of citrated blood plasma.
# [2] = tested on: citrated blood plasma; experiment: In vitro thrombin time (TT), citrated blood plasma; type: biochemical, human
# Procedure: as §1, §2, §3, §4, §5
# [3] = tested on: citrated blood plasma; experiment: In vitro activated partial thromboplastin time (APTT), citrated blood plasma; type: biochemical, human
# Procedure: as §1, §2, §3, §4, §5
Structure (SMILES),WBCT: concentration required to double the clotting time [1],TT: concentration required to double the clotting time [2],APTT: concentration required to double the clotting time [3]
"N=C(N)NCCC[C@@H](C=O)NC(=O)[C@@H]1CCCN1C(=O)[C@@H]1OCCc2ccccc21.N=C(N)NCCC[C@@H](C=O)NC(=O)[C@@H]1CCCN1C(=O)[C@@H]1OCCc2ccccc21.O=S(=O)(O)O [Example 1, D-Isochroman-1-carbonyl-L-prolyl-L-arginine aldehyde hemisulfate]",1.55,0.132,0.60
"N=C(N)NCCC[C@@H](C=O)NC(=O)[C@@H]1CCCN1C(=O)[C@H](O)C(c1ccccc1)c1ccccc1.N=C(N)NCCC[C@@H](C=O)NC(=O)[C@@H]1CCCN1C(=O)[C@H](O)C(c1ccccc1)c1ccccc1.O=S(=O)(O)O [Example 12, 3,3-Diphenyl-D-lactyl-L-prolyl-L-arginine aldehyde hemisulfate]",0.52,0.077,0.12
"N=C(N)NCCC[C@@H](C=O)NC(=O)[C@H]1CCCN1C(=O)C(O)c1ccc2ccccc2c1.N=C(N)NCCC[C@@H](C=O)NC(=O)[C@H]1CCCN1C(=O)C(O)c1ccc2ccccc2c1.O=S(=O)(O)O (stereo partly drawn) [Example 13, D-2-(2-Naphthyl)-2-hydroxyacetyl-L-prolyl-L-arginine aldehyde hemisulfate]",1.13,0.100,1.00
